We go through 13 compounds from PMC8305101, “Synthesis and Cytotoxicity Evaluation of Spirocyclic Bromotyrosine Clavatadine C Analogs” (Marine Drugs, 2021).

Data set [1] relates to caspases 3/7 in A-375 cells. Briefly: Apoptosis induction assay, caspase-3/7 activity (ApoTox-Glo) in A-375 cells. In kind it is cell-based, human. The following applies: 1 × CC50 concentration. The method, then:
Apoptosis induction assay and imaging. A-375 cells were seeded to white 96-well plates and treated with compounds at 1 × CC50 concentration, 100 µL/well, following the procedure described above. After 24 and 48 h, caspase-3/7 activity was measured using the ApoTox-Glo kit (Promega) following the manufacturer’s instructions. The light microscopy images were taken using 4× phase contrast objective and Cytation5 automated imaging reader (Biotek).

Data set [2] can be described thus: Cytotoxicity in Hs27 normal skin fibroblasts (CellTiter-Glo ATP viability). In kind it is cell-based. To be noted: human, 48-h incubation, mean (SD) of 2–3 independent experiments in triplicate. Here is the method: (§1) Analysis of selectivity to cancer cells. The cells were seeded to white frame and clear bottom 96-well plates (Perkin Elmer) at a density of 10,000 cells/well for the human malignant melanoma A-375 cell line (ATCC CRL-1619) and 7500 cells/well for the human skin fibroblast Hs27 cell line (ATCC CRL-1634). The cells were grown at 37 °C, 5% CO2 until they reached 70–80% confluence (approximately 24 h). Stock solutions of test compounds and a positive control (camptothecin, Sigma-Aldrich, St. Louis, MO, USA) were prepared in DMSO and diluted into the assay medium (growth medium with 5% FBS) to the final concentration. Final DMSO concentration was 0.5% in all samples. The culture medium was removed from the plate and compounds added, 200 µL/well. After a 48-h incubation, the amount of ATP, which is directly proportional to the number of viable cells present in culture, was quantified using CellTiter-Glo® Luminescent Cell Viability kit (Promega, Madison, WI, USA), according to manufacturer’s instructions. Origin Graphing and Analysis, version 9.55 (OriginLab, Northampton, MA, USA), was used for determination of CC50 values. The cancer cell selectivity index was calculated as a ratio of CC50 values between Hs27 fibroblasts and A-375 melanoma cells. Standard deviation of selectivity indices was calculated using Equation (1) (1) σ(x¯/y¯)=(σ(x)/x¯)^2+(σ(y)/y¯)^2
Background: Cellular ATP, detected with luciferase, serves as a proxy for viable cell number.

Data set [3] has as its system human malignant melanoma A-375 cell line. The data set is described as follows: Cytotoxicity in A-375 melanoma cells (CellTiter-Glo ATP viability). In kind it is cell-based. To be noted: for cytotoxicity at 50 µM / CC50: Homo sapiens; for CC50: read-out: CC50 (µM) in A-375 Cells; for Selectivity Index (SI): ratio of CC50 values between Hs27 fibroblasts and A-375 melanoma cells, SD in parentheses. Here is the method: as §1

Data set [4] concerns MDA-MB-231 (breast) cancer cell line. Further details: method as in doi:10.1016/j.tetlet.2016.10.019. The following applies: cited from earlier work.
Data set [5] has as its system A549 (lung) cancer cell line. Also noted: method as in doi:10.1016/j.tetlet.2016.10.019. To be noted: cited from earlier work.
The test system of data set [6] is MCF7 (breast) cancer cell line. Further details: method as in doi:10.1016/j.tetlet.2016.10.019. To be noted: cited from earlier work.
Data set [7] relates to Malme-3M melanoma cell line. Also noted: method as in PMID 32228987. To be noted: Malme-3M melanoma cells; cited from earlier work.
In data set [8] the test system is SKMel-147 melanoma cell line. Further details: method as in PMID 32228987. To be noted: SKMel-147 melanoma cells; cited from earlier work.
Data set [9] deals with Mel-Juso melanoma cell line. Further details: method as in PMID 32228987. The following applies: Mel-Juso melanoma cells; cited from earlier work.
Data set [10] relates to breast cancer cell line MCF-7. Further details: method as in PMID 32228987. The following applies: MCF-7 breast cancer cells; cited from earlier work.
Setting [11] is: 50 µM, A-375 cells, 48-h incubation, single experiment with three technical replicates, read-out: Primary Test Results (Cytotoxicity % at 50 µM in A-375 Cells).
Setting [12] is: A-375 cells, 48-h incubation, mean (SD) of 2–3 independent experiments in triplicate.
The mark [13] stands for this setting: read-out: CC50 (µM) in Hs27 Cells.
[14] abbreviates: A-375, 48 h, read-out: Primary Test Results (Cytotoxicity % at 50 µM in A-375 Cells), 50 µM, A-375 cells, 48-h incubation, single experiment with three technical replicates.

SMILES strings stand for the structures. Several values for one entry are separate records, joined by “and”; a condition that tells them apart may be missing. Equal values may be shown once. Where a name gives a salt, the structure may show the parent alone. Read-outs that look alike come from different tables or passages of the source.

The term CC50 denotes the concentration that lowers cell viability or growth by half. Turning to `CC[C@@]1(O)C(=O)OCc2c1cc1n(c2=O)Cc2cc3ccccc3nc2-1` [Camptothecin, reference compound], the “Caspase 3/7 induction, fold change relative to DMSO-treated control” value is ~20 fold in [1] (24 h) and “nearly fivefold” in data set [1] (48 h). In addition, the CC50 at 48 h in [2] (Hs27 skin fibroblast cells) came to 3.6 µM. The cytotoxicity at 50 µM in [3] (setting [11]) was found to be 94.7%. Further, in [3] (setting [12]), the CC50 came out at 0.05 µM. Also, in data set [3], the “Selectivity Index (SI)” value is on record as 70.9 (0.5).
Turning to `N=C(N)NCCCCNC(=O)C1=NOC2(C=C(Br)C(=O)C(Br)=C2)C1` [Compound 1-TFA, 7,9-Dibromo-N-(4-guanidinobutyl)-8-oxo-1-oxa-2-azaspiro[4.5]deca-2,6,9-triene-3-carboxamide], the “Activity against MDA-MB-231 cancer cell line” value in data set [4] was “moderate activity”. The “Activity against A549 cancer cell line” value in data set [5] is “moderate activity”. Moreover, the “Activity against MCF7 cancer cell line” value in data set [6] is listed as “moderate activity”. Besides, the “Primary Test Results (Cytotoxicity % at 50 µM in A-375 Cells)” value in data set [3] (50 µM, A-375 cells, 48-h incubation, single experiment with three technical replicates) is “less than 25% and 0.5%”.
Regarding `O=C(NCCc1ccccn1)C1=NOC2(C=C(Br)C(=O)C(Br)=C2)C1` [Compound 33, 7,9-Dibromo-8-oxo-N-[2-(pyridin-2-yl)ethyl]-1-oxa-2-azaspiro[4.5]deca-2,6,9-triene-3-carboxamide], the CC50 at 48 h in data set [2] (setting [13]) turned out to be 6.6 µM. The CC50 in data set [3] (A-375, 48 h) is 3.6 µM. Moreover, the cytotoxicity at 50 µM in [3] (setting [14]) came to 98.9%. Also, the “Selectivity Index (SI)” value in [3] is 1.9 (0.6).
With `O=C(NCCc1cccnc1)C1=NOC2(C=C(Br)C(=O)C(Br)=C2)C1` [Compound 34, 7,9-Dibromo-8-oxo-N-[2-(pyridin-3-yl)ethyl]-1-oxa-2-azaspiro[4.5]deca-2,6,9-triene-3-carboxamide], the CC50 at 48 h in [2] (setting [13]) came out at 8.8 µM. The CC50 in data set [3] (A-375, 48 h) came to 5.1 µM. For the same compound, the cytotoxicity at 50 µM in data set [3] (setting [14]) was 97%. In addition, in data set [3], the “Selectivity Index (SI)” value was 1.7 (0.6).
Turning to `O=C1C=CC2(C=C1)CC(C(=O)NCc1cccnc1)=NO2` [Compound 35, 8-Oxo-N-(pyridin-3-ylmethyl)-1-oxa-2-azaspiro[4.5]deca-2,6,9-triene-3-carboxamide], in data set [2] (setting [13]), the CC50 at 48 h turned out to be 2.5 µM. Also, the CC50 in data set [3] (A-375, 48 h) amounted to 1.1 µM. Moreover, the cytotoxicity at 50 µM in [3] (setting [14]) was 97.5%. In addition, the “Selectivity Index (SI)” value in data set [3] is 2.3 (0.1).
Take `O=C(NCc1cccnc1)C1=NOC2(C=C(Br)C(=O)C(Br)=C2)C1` [Compound 36, 7,9-Dibromo-8-oxo-N-(pyridin-3-ylmethyl)-1-oxa-2-azaspiro[4.5]deca-2,6,9-triene-3-carboxamide]: the CC50 at 48 h in data set [2] (setting [13]) turned out to be 6.1 µM. Further, in [3] (A-375, 48 h), the CC50 is 3.4 µM. Besides, the cytotoxicity at 50 µM in [3] (setting [14]) is 101%. In addition, the “Selectivity Index (SI)” value in [3] is listed as 1.8 (0.2).
Taken in the same sequence, the figures for `O=C1C=CC2(C=C1)CC(C(=O)NNC(=O)c1ccccn1)=NO2` [Compound 37, 8-Oxo-N’-picolinoyl-1-oxa-2-azaspiro[4.5]deca-2,6,9-triene-3-carbohydrazide] were 6 µM, 2.5 µM, 89.3% and 2.4 (0.3).
For `O=C(NNC(=O)c1ccccn1)C1=NOC2(C=C(Br)C(=O)C(Br)=C2)C1` [Compound 38, 7,9-Dibromo-8-oxo-N’-picolinoyl-1-oxa-2-azaspiro[4.5]deca-2,6,9-triene-3-carbohydrazide], in data set [2] (setting [13]), the CC50 at 48 h came to 6.4 µM. In addition, the CC50 in data set [3] (A-375, 48 h) came to 12.3 µM. Also, in data set [3] (setting [14]), the cytotoxicity at 50 µM stood at 93.5%. In addition, the “Selectivity Index (SI)” value in data set [3] is listed as 0.5 (0.5).
For `Cn1nc(-c2ccc(Cl)cc2)cc1NC(=O)C1=NOC2(C=CC(=O)C=C2)C1` [Compound 40, N-[3-(4-Chlorophenyl)-1-methyl-1H-pyrazol-5-yl]-8-oxo-1-oxa-2-azaspiro[4.5]deca-2,6,9-triene-3-carboxamide], in that order: 0.5 µM, 0.5 µM, 99.9% and 1.0 (0.8).
As for `Cn1nc(-c2ccc(Cl)cc2)cc1NC(=O)C1=NOC2(C=C(Br)C(=O)C(Br)=C2)C1` [Compound 41, 7,9-Dibromo-N-[3-(4-chlorophenyl)-1-methyl-1H-pyrazol-5-yl]-8-oxo-1-oxa-2-azaspiro[4.5]deca-2,6,9-triene-3-carboxamide], the CC50 at 48 h in [2] (setting [13]) is 1.4 µM. The CC50 in data set [3] (A-375, 48 h) amounted to 1.3 µM. In addition, in data set [3] (setting [14]), the cytotoxicity at 50 µM turned out to be 97.6%. Also, the “Selectivity Index (SI)” value in data set [3] is reported as 1.1 (0.8).
For `O=C(Nc1nc2c(s1)CCCC2)C1=NOC2(C=C(Br)C(=O)C(Br)=C2)C1` [Compound 42, 7,9-Dibromo-8-oxo-N-(4,5,6,7-tetrahydrobenzo[d]thiazol-2-yl)-1-oxa-2-azaspiro[4.5]deca-2,6,9-triene-3-carboxamide], in that order: 4.4 µM, 3.5 µM, 97.5% and 1.3 (0.5).
For the compound `CNCCCOc1c(Br)cc(CCNC(=O)/C(Cc2cc(Br)c(OC)c(Br)c2)=N/O)cc1Br` [Purpurealidin I 3, Purpurealidin I, reference compound], in [2] (Hs27 skin fibroblast cells), the CC50 at 48 h came to 4.7 µM. The cytotoxicity at 50 µM in [3] (setting [11]) was found to be 98.9%. Further, the CC50 in data set [3] (setting [12]) was found to be 3.7 µM. For the same compound, the “Selectivity Index (SI)” value in data set [3] was 1.3 (0.1).
Consider `COC1=C(Br)[C@H](O)[C@@]2(C=C1Br)CC(C(=O)NCC(O)COc1c(Br)cc(C(O)CNC(=O)C3=NO[C@]4(C=C(Br)C(OC)=C(Br)[C@@H]4O)C3)cc1Br)=NO2` (stereo partly drawn) [isofistularin-3], for which the “Effect on cell viability” value in [7] is “no significant decrease”; in [8], “no significant decrease”; in [9], “no significant decrease”; in data set [10], “reduced cell viability”.
